In publication PMC2206373, “Identification of an altered peptide ligand based on the endogenously presented, rheumatoid arthritis-associated, human cartilage glycoprotein-39(263–275) epitope: an MHC anchor variant peptide for immune modulation” (Arthritis Research & Therapy, 2007):
Like-named read-outs stand apart in the source and are kept apart here. Non-standard residues stand in square brackets, D forms with d. Residues, ends and D or L forms follow the SMILES beside them. No end group written: not given here. *: point of attachment. Phe(4-NO2) = N[C@@H](Cc1ccc([N+](=O)[O-])cc1)C(=O)O; Phe(4-Cl) = N[C@@H](Cc1ccc(Cl)cc1)C(=O)O; Phe(4-F) = N[C@@H](Cc1ccc(F)cc1)C(=O)O; Phe(4-I) = N[C@@H](Cc1ccc(I)cc1)C(=O)O; hPhe = N[C@@H](CCc1ccccc1)C(=O)O; 3Pal = N[C@@H](Cc1cccnc1)C(=O)O; 2Thi = N[C@@H](Cc1cccs1)C(=O)O; Cha = N[C@@H](CC1CCCCC1)C(=O)O; Bn = c1ccc(C*)cc1

What was measured:
HLA-DR4(B1*0401) = HLA-DR4(B1*0401) (Homo sapiens, UniProt P01903+P01911, A100K/A169T/F76Y/I96L/K127E/L162R/M171V/N62H/P40V/Q125Y/R42H/S133A/S149N/S66Y/V115G/V209L/W38E); assay: HLA-DR4 competition peptide binding assay; settings: competition with biotinylated HA307-319 (Y309F) 50 nM, purified HLA-DR4 30 nM, pH 5, 48 h, room temperature
Description: HLA-DR bound marker peptide was separated from free marker peptide and the amount of bound marker peptide was detected and quantified by enhanced chemoluminescense. Inhibition curves were generated and the IC50 was determined. The concentration of competitor peptide inducing 50% inhibition of marker peptide binding was determined, and expressed as the 50% inhibitory concentration (IC50 in μM).

T cell hybridoma 5G11 = assay: T hybridoma 5G11 IL-2 response; format: cell-based, mouse; settings: Figure 1; IL-2 production, DRB1*0401 BLCL as APC; duplicate or triplicate; background 29,203 counts; ±30% of WT response = super/partial agonist
Description: (§1) The T cell hybridomas, provided by G Sonderstrup (Stanford, CA, USA), were generated as described. In brief, human CD4, HLA-DRA*101/HLA-DRB*0401 triple transgenic (HLA-DR4trg) mice (devoid of I-Aβ) were immunized in the footpad with 50 μg of purified HC gp-39 mixed in incomplete Freund's adjuvant (IFA). Draining lymph nodes were isolated and T-cell hybridomas were generated by polyethylene glycol fusion of primed and in vitro antigen-restimulated lymph node cells with the AKR BW5147 fusion partner. Following fusion, growth-positive hybridoma wells were screened for reactivity to HC gp-39 and a set of 55 peptides (16 amino acids in length) covering the entire HC gp-39 sequence. HLA-DR4(B1*0401)-restricted hybridomas responsive to both the HC gp-39 protein and the immunodominant epitope 263–275 of HC gp-39 (for example, 5G11, 8B12, 14G11 and 20H5) were cloned, subcloned, characterised and selected for further study.
(§2) HC gp-39-specific IL-2 production by T hybridomas was measured in wells of round-bottomed microtiter plates. Hybridoma cells (2 to 5 × 10^4) and irradiated APC (0.5 to 1 × 10^5; 12,000 to 16,000 RAD) from the B lymphoblastoid cell line (BLCL) carrying the DRB1*0401 specificity were incubated in 150 μl volumes. Antigen was added in 50 μl volumes to duplicate wells. After 48 h, 100 μl of the culture supernatant was assayed for IL-2 production using a sandwich ELISA with Pharmingen antibodies specific for mouse IL-2. The antigen sensitivity of the hybridomas to both peptide and protein was determined (Figure 2). […] In later assays, an excess of peptide or APL (10 μg/ml), inducing maximal responses in all hybridomas, was tested.

T cell hybridoma 14G11 = assay: T hybridoma 14G11 IL-2 response; format: cell-based, mouse; settings: Figure 1; IL-2 production, DRB1*0401 BLCL as APC; duplicate or triplicate; background 7,152 counts; ±30% of WT response = super/partial agonist
Description: as §1, §2

T cell hybridoma 8B12 = assay: T hybridoma 8B12 IL-2 response; format: cell-based, mouse; settings: Figure 1; IL-2 production, DRB1*0401 BLCL as APC; duplicate or triplicate; background 16,288 counts; ±30% of WT response = super/partial agonist
Description: as §1, §2

[1] = Figure 1, read-out: DRB1*0401 binding IC50
[2] = Table 2, read-out: HLA-DR binding IC50
[3] = Table 1, geometric mean of two experiments, read-out: HLA-DR binding IC50

| IC50 (HLA-DR4(B1*0401); [1]) | IC50 (HLA-DR4(B1*0401); [2]) | Compound | T hybridoma (SI) 5G11 (T cell hybridoma 5G11) | further results |
| --- | --- | --- | --- | --- |
| 15 nM | – | CC(C)C[C@H](NC(=O)[C@@H](NC(=O)[C@H](CCc1ccccc1)NC(=O)[C@H](CO)NC(=O)[C@@H](N)CCCNC(=N)N)[C@@H](C)O)C(=O)N[C@@H](C)C(=O)N[C@@H](CO)C(=O)N[C@@H](CO)C(=O)N[C@@H](CCC(=O)O)C(=O)N[C@H](C(=O)NCC(=O)N[C@H](C(=O)NCC(=O)O)C(C)C)[C@@H](C)O [Compound 24] (H-RS[hPhe]TLASSETGVG-OH) | – | – |
| 7 nM | – | CC(C)C[C@H](NC(=O)[C@@H](NC(=O)[C@H](CC1CCCCC1)NC(=O)[C@H](CO)NC(=O)[C@@H](N)CCCNC(=N)N)[C@@H](C)O)C(=O)N[C@@H](C)C(=O)N[C@@H](CO)C(=O)N[C@@H](CO)C(=O)N[C@@H](CCC(=O)O)C(=O)N[C@H](C(=O)NCC(=O)N[C@H](C(=O)NCC(=O)O)C(C)C)[C@@H](C)O [Compound 25] (H-RS[Cha]TLASSETGVG-OH) | 32 SI | T hybridoma (SI) 14G11 (T cell hybridoma 14G11): 26 SI; T hybridoma (SI) 8B12 (T cell hybridoma 8B12): 18 SI |
| 9 nM | – | CC(C)C[C@H](NC(=O)[C@@H](NC(=O)[C@H](Cc1cccs1)NC(=O)[C@H](CO)NC(=O)[C@@H](N)CCCNC(=N)N)[C@@H](C)O)C(=O)N[C@@H](C)C(=O)N[C@@H](CO)C(=O)N[C@@H](CO)C(=O)N[C@@H](CCC(=O)O)C(=O)N[C@H](C(=O)NCC(=O)N[C@H](C(=O)NCC(=O)O)C(C)C)[C@@H](C)O [Compound 26] (H-RS[2Thi]TLASSETGVG-OH) | 23 SI | T hybridoma (SI) 14G11 (T cell hybridoma 14G11): 31 SI; T hybridoma (SI) 8B12 (T cell hybridoma 8B12): 18 SI |
| 16 nM | – | CC(C)C[C@H](NC(=O)[C@@H](NC(=O)[C@H](Cc1cccnc1)NC(=O)[C@H](CO)NC(=O)[C@@H](N)CCCNC(=N)N)[C@@H](C)O)C(=O)N[C@@H](C)C(=O)N[C@@H](CO)C(=O)N[C@@H](CO)C(=O)N[C@@H](CCC(=O)O)C(=O)N[C@H](C(=O)NCC(=O)N[C@H](C(=O)NCC(=O)O)C(C)C)[C@@H](C)O [Compound 29] (H-RS[3Pal]TLASSETGVG-OH) | 23 SI | T hybridoma (SI) 14G11 (T cell hybridoma 14G11): 44 SI; T hybridoma (SI) 8B12 (T cell hybridoma 8B12): 19 SI |
| 12 nM | – | CC(C)C[C@H](NC(=O)[C@@H](NC(=O)[C@H](Cc1ccc(F)cc1)NC(=O)[C@H](CO)NC(=O)[C@@H](N)CCCNC(=N)N)[C@@H](C)O)C(=O)N[C@@H](C)C(=O)N[C@@H](CO)C(=O)N[C@@H](CO)C(=O)N[C@@H](CCC(=O)O)C(=O)N[C@H](C(=O)NCC(=O)N[C@H](C(=O)NCC(=O)O)C(C)C)[C@@H](C)O [Compound 30] (H-RS[Phe(4-F)]TLASSETGVG-OH) | 29 SI | T hybridoma (SI) 14G11 (T cell hybridoma 14G11): 27 SI; T hybridoma (SI) 8B12 (T cell hybridoma 8B12): 17 SI |
| 9 nM | – | CC(C)C[C@H](NC(=O)[C@@H](NC(=O)[C@H](Cc1ccc(Cl)cc1)NC(=O)[C@H](CO)NC(=O)[C@@H](N)CCCNC(=N)N)[C@@H](C)O)C(=O)N[C@@H](C)C(=O)N[C@@H](CO)C(=O)N[C@@H](CO)C(=O)N[C@@H](CCC(=O)O)C(=O)N[C@H](C(=O)NCC(=O)N[C@H](C(=O)NCC(=O)O)C(C)C)[C@@H](C)O [Compound 31] (H-RS[Phe(4-Cl)]TLASSETGVG-OH) | 32 SI | T hybridoma (SI) 14G11 (T cell hybridoma 14G11): 29 SI; T hybridoma (SI) 8B12 (T cell hybridoma 8B12): 14 SI |
| < 9 nM | – | CC(C)C[C@H](NC(=O)[C@@H](NC(=O)[C@H](Cc1ccc(I)cc1)NC(=O)[C@H](CO)NC(=O)[C@@H](N)CCCNC(=N)N)[C@@H](C)O)C(=O)N[C@@H](C)C(=O)N[C@@H](CO)C(=O)N[C@@H](CO)C(=O)N[C@@H](CCC(=O)O)C(=O)N[C@H](C(=O)NCC(=O)N[C@H](C(=O)NCC(=O)O)C(C)C)[C@@H](C)O [Compound 33] (H-RS[Phe(4-I)]TLASSETGVG-OH) | 26 SI | – |
| 13 nM | – | CC(C)C[C@H](NC(=O)[C@@H](NC(=O)[C@H](Cc1ccc([N+](=O)[O-])cc1)NC(=O)[C@H](CO)NC(=O)[C@@H](N)CCCNC(=N)N)[C@@H](C)O)C(=O)N[C@@H](C)C(=O)N[C@@H](CO)C(=O)N[C@@H](CO)C(=O)N[C@@H](CCC(=O)O)C(=O)N[C@H](C(=O)NCC(=O)N[C@H](C(=O)NCC(=O)O)C(C)C)[C@@H](C)O [Compound 34] (H-RS[Phe(4-NO2)]TLASSETGVG-OH) | 32 SI | T hybridoma (SI) 14G11 (T cell hybridoma 14G11): 33 SI; T hybridoma (SI) 8B12 (T cell hybridoma 8B12): 20 SI |
| 7 nM | – | CC(C)C[C@H](NC(=O)[C@@H](NC(=O)[C@H](COCc1ccccc1)NC(=O)[C@H](CO)NC(=O)[C@@H](N)CCCNC(=N)N)[C@@H](C)O)C(=O)N[C@@H](C)C(=O)N[C@@H](CO)C(=O)N[C@@H](CO)C(=O)N[C@@H](CCC(=O)O)C(=O)N[C@H](C(=O)NCC(=O)N[C@H](C(=O)NCC(=O)O)C(C)C)[C@@H](C)O [Compound 35] (H-RSS(Bn)TLASSETGVG-OH) | 28 SI | T hybridoma (SI) 14G11 (T cell hybridoma 14G11): 31 SI; T hybridoma (SI) 8B12 (T cell hybridoma 8B12): 20 SI |
| – | 100 nM | ASFTLASSETGVG [Compound 10] | – | – |
| – | – | FTLASSETGVG [Compound 6] | – | IC50 (HLA-DR4(B1*0401); [3]): 110 nM |
| – | 100 nM | RAFTLASSETGVG [Compound 11] | – | – |
| – | 60 nM | RSFALASSETGVG [Compound 13] | – | – |
| – | 80 nM | RSFTAASSETGVG [Compound 14] | – | – |
| – | 50 nM | RSFTLAASETGVG [Compound 16] | – | – |
| – | 50 nM | RSFTLASAETGVG [Compound 17] | – | – |
| – | 40 nM | RSFTLASSATGVG [Compound 18] | – | – |
| – | 40 nM | RSFTLASSEAGVG [Compound 19] | – | – |
| – | – | RSFTLASSET [Compound 4] | – | IC50 (HLA-DR4(B1*0401); [3]): 7000 nM |
| – | 50 nM | RSFTLASSETAVG [Compound 20] | – | – |
| – | – | RSFTLASSETG [Compound 3] | – | IC50 (HLA-DR4(B1*0401); [3]): 200 nM |
| – | 60 nM | RSFTLASSETGAG [Compound 21] | – | – |
| – | – | RSFTLASSETGV [Compound 2] | – | IC50 (HLA-DR4(B1*0401); [3]): 90 nM |
| – | 50 nM | RSFTLASSETGVA [Compound 22] | – | – |
| – | – | SFTLASSETGV [Compound 9] | – | IC50 (HLA-DR4(B1*0401); [3]): 120 nM |
| – | – | SFTLASSETGVG [Compound 5] | – | IC50 (HLA-DR4(B1*0401); [3]): 90 nM |
